{
  "source": "patent US20230416307A1",
  "about": "“[…] PEPTIDES FOR ENHANCING VIRAL PRODUCTION” (Synvivia, Inc., priority 2022, published 2023)",
  "assay_type_in_all_cases": "cell-based, adeno-associated virus",
  "key": {"AAV2-GFP": {"system": "AAV2-GFP", "experiment": "Transduction efficiency (TU:VG ratio) of AAV2-GFP packaged in cells expressing a CP", "settings": "for transduction efficiency of AAV2-GFP produced in the presence of CP: FIG. 23, CP plasmid 0.3 ng to 100 ng, versus control without CP", "source_text": "AAV2-GFP were harvested and assayed for biological and physical titer as described in FIG. 20\nFIG. 24. […] This figure depicts the raw flow cytometry data used to determine the biological titer of AAV samples. This is an example of the data that was used to determine the biological titers in FIG. 23. The X-axis of each graph represents the forward light scattering (FSC) from flow cytometry. The Y-axis represents the GFP intensity of each cell. A 1000-fold dilution of AAV2-GFP particles produced either in the presence (A) or absence (B) of cyclic peptide were used to transduce HEK293 cells. A 1000-fold dilution of the preparation was used (e.g., without physical titer normalization) to ensure a direct, batch-to-batch comparison of the impact of cyclic peptide on viral packaging performance.\nAs used herein, the term “transduction efficiency” refers to the effectiveness (efficiency) of viral particles in delivering their genetic payload to the target cells. This efficiency may be represented by the transducing units to vector genomes ratio (TU:VG). Viral formulations with enhanced transduction efficiency can achieve greater numbers of DNA delivery events for the same number of DNA-containing viral particles. […] Enhanced transduction efficiency may be achieved by optimizing the cellular environment for viral production, leading to viral particles with improved capsid structure, viral particle biochemistry, or viral particle assembly. Increasing transduction efficiency refers to improvements in the TU:VG ratio, which encompasses both infectivity and biological titer.\n• 1. A 100-mm cell culture dish was reseeded with 4.0×10^6 Hek293T cells in high glucose DMEM culture medium supplemented with 10% FBS. • 2. […] A jetOPTIMUS DNA transfection reagent i used during the transfection protocol (from Polyplus). • 3. 12-16 hours after transfection, media was replaced with low glucose DMEM culture medium supplemented with 1% FBS, 1×Glutamax, 10 mM HEPES, and 0.075% sodium bicarbonate. • 4. Cells and media were harvested 4 days after transfection and frozen in 1 mL aliquots. • 5. Frozen aliquots were thawed and lysed using AAVMax Lysis Reagent (Life Technologies, USA, A50520). 100 uL of AAVMax Lysis buffer was added to 900 uL of cell and media. Mixture was incubated for 2 hours with rotating. Debris was pelleted at 5,000xg for 15 minutes. AAV containing supernatant was collected. • 6. The physical and biological titers of the harvested AAV samples were determined by qPCR and biological viral titer measurement as described in Example 1.\nFull, but non-functional viral particles represent a major manufacturing challenge for AAV gene therapies. At present, there is no process capable of purifying the functional viral particles from the full, but non-functional fraction."}, "AAV2 [1]": {"system": "AAV2", "experiment": "Physical titer (qPCR or ddPCR, VG/ml) of AAVs packaged in cells expressing a CP", "settings": "FIG. 20A; GFP payload; cells expressing individual CP relative to no CP expression", "method": "(§1) FIG. 20. Exemplary bar charts showing fold improvement of physical titer and/or biological titer for various CPs. […] The payload being packaged during AAV production is GFP only. The cyclic peptide generator is located on a separate DNA, is only expressed by the host cell, and is not able to be packaged. Physical titer is quantified by qPCR or ddPCR and expressed as viral genomes produced per mL (VG/ml) of AAV packaging cells and media. […] Biological titer is measured in vitro by transducing a standardized number of wild-type (WT) mammalian (HEK293) cells with diluted AAVs harvested after packaging with or without CP expression. The transductants are identified by GFP payload expression. The fold improvement is calculated by dividing the percentage of GFP expressing (transduced) cells after transduction with AAVs packaged in cells expressing a CP by the percentage of GFP expressing (transduced) cells after transduction with AAVs packaged in cells that are not expressing a CP.\nPrimers binding the eGFP reporter protein were used to measure the virus titer with quantitative polymerase chain reaction (qPCR). Before releasing the viral DNA from the particles, all extra-viral DNA was removed by digestion with DNase I. Then, the viral DNA was released by alkaline lysis. The qPCR was performed using the PowerUp™ SYBR™ Green Master Mix (Applied Biosystems), and primers against the zsGreen obtained from Integrated DNA Technologies. The extracted viral DNA and a serial dilution of a viral plasmid containing z as a standard were measured using the CFX96 Touch Real-Time PCR Detection System and the CFX Maestro Software (Bio-Rad, Hercules, CA).\n(§2) 50-70% confluent HEK-293T cells (˜10^6 total cells) grown in DMEM supplemented with 5% FBS were quadruple transfected with pHelper Vector, pAAV-ZsGreenl Vector, AAVpro® Packaging Rep-Cap Plasmid (AAV2), and pTargeT Mammalian Expression Vector with cloned individual cyclic peptide generator of interest in a 1:1:1:1 molar ratio normalized to the plasmid size using JetOptimus Transfection Reagent in 100 mm TC treated petri dish. AAV preparation is conducted as described above. Biological viral titer measurement is performed as described above.\n(§3) • 1. A 100-mm cell culture dish was reseeded with 4.0×10^6 Hek293T cells in high glucose DMEM culture medium supplemented with 10% FBS. • 2. One day after plating, the cells (70-80% confluence) were co-transfected with 3.2ug pRC2 which encodes Rep and Cap genes (SEQ ID NO: 1-7), 4.6ug pHelper which encodes Adenovirus helper genes (SEQ ID NO: 16-19, 22, 23), 2.2ug payload vector, and 1-100ng engineered cyclic peptide expression vector (if using). A jetOPTIMUS DNA transfection reagent i used during the transfection protocol (from Polyplus). • 3. 12-16 hours after transfection, media was replaced with low glucose DMEM culture medium supplemented with 1% FBS, 1×Glutamax, 10 mM HEPES, and 0.075% sodium bicarbonate. • 4. Cells and media were harvested 4 days after transfection and frozen in 1 mL aliquots. • 5. Frozen aliquots were thawed and lysed using AAVMax Lysis Reagent (Life Technologies, USA, A50520). 100 uL of AAVMax Lysis buffer was added to 900 uL of cell and media. Mixture was incubated for 2 hours with rotating. Debris was pelleted at 5,000xg for 15 minutes. AAV containing supernatant was collected. • 6. The physical and biological titers of the harvested AAV samples were determined by qPCR and biological viral titer measurement as described in Example 1.\nThe physical titer fold improvement was calculated by dividing the physical titer of AAVs packaged in cells expressing a CP by the physical titer of cells that are not expressing a CP."}, "AAV2 [2]": {"system": "AAV2", "experiment": "Biological titer of AAVs packaged in cells expressing a CP (GFP-positive transduced HEK293 cells)", "settings": "FIG. 20B; HEK293 transduction; cells expressing individual CP relative to no CP expression", "method": "as §1\nHEK-293T were reseeded in a 24 well tissue culture treated plate at a density of 1-2*10^4 cells/well in 0.5 mL of DMEM with 10% FBS. Cells were cultured overnight. 10-fold serial dilutions of prepared AAV2 particle solutions using DMEM with 10% FBS were used to infect the HEK-293T cells. Dilutions ranged from 1:10 to 1:10000. On Day 3 after infection, cells were detached using Trypsin/EDTA and analyzed for eGFP expression by image-based cytometry.\nas §2, §3\nThe fold improvement in biological titer was calculated by dividing the percentage of GFP expressing (transduced) cells after transduction with AAVs packaged in cells expressing a CP by the percentage of GFP expressing (transduced) cells after transduction with AAVs packaged in cells that are not expressing a CP."}},
  "note": "Ends that are not written are not given here.",
  "data": [
    {"substance": "CYNHAR: engineered cyclic peptide, SEQ ID NO: 35, corresponds to generator plasmid T2851-8 (cyclic; Cyclic peptide that was found to increase or decrease AAV viral titer in a dose-responsive manner.)", "values": [
      {"measurement": "increased transduction efficiency (TU:VG ratio)", "setting": "AAV2-GFP; FIG. 21 legend, data not shown", "result": "~2.4", "unit": "×"}
    ]},
    {"substance": "CCRPH: engineered cyclic peptide, printed as SEQ ID NO: 37", "values": [
      {"measurement": "transduction efficiency of AAV2-GFP produced in the presence of CP", "setting": "AAV2-GFP", "result": "improvements in transduction efficiency"}
    ]},
    {"substance": "CQVTRM: engineered cyclic peptide, SEQ ID NO: 55 (cyclic; Cyclic peptide that was found to enhance AAV viral titer; We observed log10 enrichment score of 3.258, mean of 74 experimental replicates. We observed excellent mean log10 enrichment scores for this cyclic peptide across multiple AAV serotypes: AAV1_3.4; AAV2_3.3; AAV5_3.2; AAV6_3.1. Cyclo-CQVTRM possesses the following motifs: POL_HYD_POL-motif; POL_POL_HYD-motif; POS_HYD_POL-motif.)", "values": [
      {"measurement": "fold improvement in physical titer of AAVs", "setting": "AAV2 [1]", "result": "fold improvements in physical titer"},
      {"measurement": "fold improvement in biological titer of AAVs", "setting": "AAV2 [2]", "result": "fold improvements in biological titer"}
    ]},
    {"substance": "CRVSY: engineered cyclic peptide, SEQ ID NO: 41 (also: cyclic, closure not given here)", "values": [
      {"measurement": "transduction efficiency of AAV2-GFP produced in the presence of CP", "setting": "AAV2-GFP", "result": "improvements in transduction efficiency"}
    ]},
    {"substance": "CYPLH: engineered cyclic peptide, SEQ ID NO: 60 (cyclic; Cyclic peptide that was found to enhance AAV viral titer)", "values": [
      {"measurement": "fold improvement in physical titer of AAVs", "setting": "AAV2 [1]", "result": "fold improvements in physical titer"},
      {"measurement": "fold improvement in biological titer of AAVs", "setting": "AAV2 [2]", "result": "fold improvements in biological titer"}
    ]},
    {"substance": "CTHKVS: engineered cyclic peptide, SEQ ID NO: 38 (also: cyclic, closure not given here)", "values": [
      {"measurement": "transduction efficiency of AAV2-GFP produced in the presence of CP", "setting": "AAV2-GFP", "result": "improvements in transduction efficiency"}
    ]},
    {"substance": "CAAAS: engineered cyclic peptide, SEQ ID NO: 48 (cyclic; Cyclic peptide that was found to enhance AAV viral titer)", "values": [
      {"measurement": "fold improvement in physical titer of AAVs", "setting": "AAV2 [1]", "result": "fold improvements in physical titer"},
      {"measurement": "fold improvement in biological titer of AAVs", "setting": "AAV2 [2]", "result": "fold improvements in biological titer"}
    ]},
    {"substance": "CYVTTD: engineered cyclic peptide, SEQ ID NO: 62 (cyclic; Cyclic peptide that was found to enhance AAV viral titer; We observed log10 enrichment score of 3.986, mean of 70 experimental replicates. We observed excellent mean log10 enrichment scores for this cyclic peptide across multiple AAV serotypes: AAV1_4.2; AAV2_4.1; AAV5_3.6; AAV6_3.9. Cyclo-CYVTTD possesses the following motifs: ARO_HYD_POL-motif; POL_POL_NEG-motif; NEG_POL_ARO-motif.)", "values": [
      {"measurement": "fold improvement in physical titer of AAVs", "setting": "AAV2 [1]", "result": "fold improvements in physical titer"},
      {"measurement": "fold improvement in biological titer of AAVs", "setting": "AAV2 [2]", "result": "fold improvements in biological titer"}
    ]},
    {"substance": "CQVFQL: engineered cyclic peptide, SEQ ID NO: 42 (also: cyclic, closure not given here)", "values": [
      {"measurement": "transduction efficiency of AAV2-GFP produced in the presence of CP", "setting": "AAV2-GFP", "result": "improvements in transduction efficiency"}
    ]},
    {"substance": "CSDPSA: engineered cyclic peptide, SEQ ID NO: 56 (cyclic; Cyclic peptide that was found to enhance AAV viral titer; We observed log10 enrichment score of 3.653, mean of 76 experimental replicates. We observed excellent mean log10 enrichment scores for this cyclic peptide across multiple AAV serotypes: AAV1_3.5; AAV2_4.0; AAV5_3.0; AAV6_3.4. Cyclo-CSDPSA possesses the following motifs: POL_HYD_POL-motif; NEG_HYD_POL-motif; POL_NEG_HYD-motif; POL_POL_NEG-m)", "values": [
      {"measurement": "fold improvement in physical titer of AAVs", "setting": "AAV2 [1]", "result": "fold improvements in physical titer"},
      {"measurement": "fold improvement in biological titer of AAVs", "setting": "AAV2 [2]", "result": "fold improvements in biological titer"}
    ]}
  ]
}
